≈ marks a conversion by molar mass, not a printed value.
Tested on: Fusarium graminearum
Experiment: Fungicidal activity against Fusarium graminearum 2021 assessed as mycelial growth inhibition after 3 days
Type: functional, organism-based
Conditions: Fusarium graminearum, 2021, 72 h

Going from `CCCCNC(=O)n1c(NC(=O)OC)nc2ccccc21` [BENOMYL] to `COC(=O)NC(=S)Nc1ccccc1NC(=S)NC(=O)OC` [THIOPHANATE METHYL], the EC50 rises from 0.61 µg/mL (≈ 2.1 µM) to 11 µg/mL (≈ 32.2 µM) (18-fold).

`c1ccc2[nH]c(-c3cscn3)nc2c1` [THIABENDAZOLE] showed an EC50 of 1.13 µg/mL (≈ 5.61 µM).
